In patent US20050214285A1, “Epitopes or mimotopes derived from the C-epsilon-3 or C-epsilon-4 domains of IgE, antagonists thereof, and their therapeutic uses” (SmithKline Beecham Biologicals, s.a. and Peptide …, priority 1999, published 2005):

System: PTmAb0005
Test: Phage display ranking of peptide ligands for PTmAb0005
Assay type: binding
Settings: for Rel. Rank A / Rel. Rank B: IgEC67-8 mutants (Table 9); for Rank (ECL) PTmAb0005: primary phage display biopannings (Table 6)
Procedure: Phage display libraries were used to map the binding sites of the monoclonal antibodies using three different phage libraries, displaying either the XCX15, XCX10 or XAX10 peptide sequence (where X is any amino acid) at the N-terminus of the phage gVIIIp. Tables 6 and 7 show the results of selecting for peptide ligands with the anti human IgE monoclonal antibodies […]. […]
This was performed by introducing random mutations by PCR mutagenesis and sub-cloning into the Fuse 5 vector for minor filamentous phage protein gIIIp display. These, and other results, confirmed the importance of the amino acids within IgEC67 which aligned with the Cε2 epitope. […] Mutations in other sites had little effect on the affinity to PTmAb0005.
This involved a DNA sub-cloning transfer from the major coat protein (gVIIIp) filamentous phage display vector to a lower copy number minor phage coat protein (gIIIp) display vector with a random PCR step. […] Included in the tables are ranking orders and also BIAcore affinities where available.

## ADGAECFINKQMADRELCAREVAEA [Peptide 2-12, IgEC67-8 mutant clone]
  Rel. Rank A: 1.22
  Rel. Rank B: 1.50

## ADGAECFINKQRADLELCPGEAAEA [4-2,4-3, IgEC67-8 mutant clone]
  Rel. Rank A: 1.11
  Rel. Rank B: 1.60

## ADGAGCFRNKQMADLELCPREAAEA [Peptide 1-6, IgEC67-8 mutant clone]
  Rel. Rank A: 0.95
  Rel. Rank B: 1.16

## CCQRDVELVFGS [ESD38]
  Rank (ECL) PTmAb0005: 0

## SMEGQVRDIQV [ESB7]
  Rank (ECL) PTmAb0005: 0

## ADGAGCFIEKQMADMELCQRETAEA [Peptide 1-1, IgEC67-8 mutant clone]
  Rel. Rank A: 1.04
  Rel. Rank B: 1.29

## ADGAGCSIHTQMADWERCLREGAEA [6-12,5-8]
  Rel. Rank A: 0.93
  Rel. Rank B: 0.67

## ADGAGCFINKQMADLELCPREGAEA [1-4,1-2,1-12, IgEC67-8 mutant clone]
  Rel. Rank A: 1.37
  Rel. Rank B: 1.39

## ADGAGCFIDKQMADLELCPRAAAEA [1-9,2-5, IgEC67-8 mutant clone]
  Rel. Rank A: 1.21
  Rel. Rank B: 1.41

## YQQRDLELLAE [ESB18]
  Rank (ECL) PTmAb0005: 0

## GQMMDTELLNR [ESB1/6etc]
  Rank (ECL) PTmAb0005: 0

## ADGAGCFQNKQMADLELCPREAAEA [Peptide 1-5, IgEC67-8 mutant clone]
  Rel. Rank A: 1.13
  Rel. Rank B: 1.73

## CCITDVPQGVMYKGSPD [ESC18]
  Rank (ECL) PTmAb0005: 0

## ADGAGCFINKQMADMELCPREAAEA [Peptide 2-3, IgEC67-8 mutant clone]
  Rel. Rank A: 1.03
  Rel. Rank B: 1.31

## ADGAGCFINKQMADLELCTREAAEA [Peptide 3-11, IgEC67-8 mutant clone]
  Rel. Rank A: 1.54
  Rel. Rank B: 2.02

## ADGAGCFIKKQMADLELCPREAWEA [Peptide 4-1, IgEC67-8 mutant clone]
  Rel. Rank A: 1.24
  Rel. Rank B: 1.52

## CCVSDEPAGVRD [ESD6/10/40]
  Rank (ECL) PTmAb0005: 0

## SMGQKVDRELV [ESB9]
  Rank (ECL) PTmAb0005: 0

## SMGQEVDRELV [ESB40]
  Rank (ECL) PTmAb0005: 0

## CCVMDLELASGF [ESD36]
  Rank (ECL) PTmAb0005: 0

## ECKVDGQLSDSPLLRNN [ESC45]
  Rank (ECL) PTmAb0005: 0

## GGWQESDIPGR [ESB32]
  Rank (ECL) PTmAb0005: 0

## TCCVTDIPPPDYEQSLG [IgEC83]
  Rank (ECL) PTmAb0005: 0

## ADGAGCFINKQMADLELCPRQAAEA [3-1,3-9,3-10, IgEC67-8 mutant clone]
  Rel. Rank A: 1.54
  Rel. Rank B: 1.85

## REQQISDVPRV [ESB26]
  Rank (ECL) PTmAb0005: 0

## ADGAGCFINKQMADSELCPAAAAEA [Peptide 1-10, IgEC67-8 mutant clone]
  Rel. Rank A: 1.10
  Rel. Rank B: 1.08

## SCNLNHQSCDIPPVKQI [ESC46]
  Rank (ECL) PTmAb0005: 0

## ADGAGCFINKQMADWELCPREGAEA [Peptide 2-15, IgEC67-8 mutant clone]
  Rel. Rank A: 1.44
  Rel. Rank B: 1.57

## ADGAGCFINKQMSDFELCPREAGEA [Peptide 2-13, IgEC67-8 mutant clone]
  Rel. Rank A: 1.56
  Rel. Rank B: 2.14

## ADGAGCFINKQMADSELCPREPAEA [Peptide 5-16, IgEC67-8 mutant clone]
  Rel. Rank A: 1.29
  Rel. Rank B: 1.83

## CCMTDDPMYTNSTWAIR [ESC43]
  Rank (ECL) PTmAb0005: 0

## HCKNEFKKGQWTYSCSD [IgEC43]
  Rank (ECL) PTmAb0005: 0
